Measured values taken from patent publication US9687470B2, “Compounds for use in the treatment of filariasis” (RHEINISCHE FRIEDRICH-WILHELMS UNIVERSITAET BONN, priority 2011, dated 2017).
“Also recorded” adds a separate entry of the source.

Tests used:
[1] = Stability of corallopyronin A injection samples in PBS by analytical HPLC; type: physicochemical; details: samples in PBS used for injection; days 1, 14 and 28; compared with purified corallopyronin A
Protocol: To verify that the corallopyronin A was stable over the whole period of the in vivo experiment, aliquots of the samples in phosphate buffered saline (PBS, PAA Laboratories, Colbe, Germany) which were used for injection were analyzed by High performance liquid chromatography (HPLC). The conditions for the analytical HPLC runs were the same as above. […] Five weeks post infection worms were recovered from the pleural cavity by lavage with PBS. The worms were sorted by sex with the aid of a dissecting microscope and their lengths measured. 10 female worms from each treatment were individually frozen for DNA extraction.

[2] = tested on: Wolbachia of A. albopictus; assay: Susceptibility of Wolbachia to corallopyronin A in vitro (infected C6/36 cells, qPCR 16S-rRNA/actin ratio); type: cell-based
Protocol: The activity of corallopyronin A against Wolbachia was tested in vitro using the Aedes albopictus C6/36 cell line infected with Wolbachia of A. albopictus.
The susceptibility of Wolbachia towards corallopyronin A was investigated as described previously (Henrichfreise, Schiefer et al., “Functional conservation of the lipid II biosynthesis pathway in the cell wall-less bacteria Chlamydia and Wolbachia: why is lipid II needed?”, (2009) Mol Microbiol, 73 (5): 913-923) with some modifications.
The A. albopictus cell line C6/36 (European Collection of Cell Cultures) infected with Wolbachia from A. albopictus B containing supernatant as described in Turner et al., J Immunol 2006, 177(2): 1240-1249 were cultured in 96-well plates by seeding each well with 1×10^4 insect cells. The cells were incubated for 9 days at 26° C. in L15 Leibovitz's medium (Invitrogen, Darmstadt, Germany) supplemented with 5% fetal calf serum (FCS, Invitrogen), 1% nonessential amino acids (PAA Laboratories, Colbe, Germany), 0.59 mg/ml tryptose phosphate broth (Sigma, Munich, Germany) and 0.01% penicillin/streptomycin (PAA Laboratories) with and without 4 μg/ml doxycycline (Merck, Darmstadt, Germany) and 1, 0.1 and 0.01 μg/ml corallopyronin A in duplicate. The medium was replaced every third day. The treated cells were harvested on day 9.
Extraction of genomic DNA was performed with the QIAamp Kit (Qiagen, Hilden, Germany) according to the instructions of the manufacturer. Depletion of Wolbachia was monitored by quantitative real-time PCR (qPCR) using the primers 16S-rRNA-Fw (5′-[…]-3′, SEQ ID NO: 1) and 16S-rRNA-Rev (5′-GTGTGGCTGATCATCCTCT-3′, SEQ ID NO: 2) which target the 16S-rRNA gene (GenBank Accession #: X61767) of Wolbachia and Ac-Fw (5′-[…]-3′, SEQ ID NO: 3) and Ac-Rev (5′-[…]-3′, SEQ ID NO: 4) for actin (GenBank Accession #: DQ657949) of the C6/36 cells.
The PCR reaction mixtures were 20 μl of 1× HotStar Taq Buffer (Qiagen), 3 mM MgCl2, 0.2 mM dNTPs (PeqLab, Erlangen, Germany), 0.5 μM forward and reverse 16S-rRNA primers or 0.3 μM forward and reverse actin primers, 0.2 μl of a 1:1000 dilution in DMSO of SybrGreen (Roche, Mannheim, Germany), 0.5 units HotStar Taq polymerase and 2 μl of gDNA. […] Specific amplification was confirmed by a melting curve analysis from 72° C. to 95° C. with fluorescence acquired on the FAM channel at 1° C. intervals. The copy number of each gene was calculated using a plasmid containing the appropriate insert as standard curve. […]
Normal distribution of the data was calculated using the D′Agostino & Pearson omnibus normality test. […] Alls statistics were calculated using GraphPad Prism version 5.00 for Windows, GraphPad Software, San Diego Calif. […]

[3] = tested on: C6/36 cells; type: cell-based, Aedes albopictus
[4] = tested on: Wolbachia; assay: Susceptibility of Wolbachia in vivo: depletion from L. sigmodontis worms in infected BALB/c mice (qPCR ftsZ/actin); parameters: species or system Wolbachia of Litomosoides sigmodontis in BALB/c mice
Protocol: The effect of corallopyronin A in vivo was determined in a rodent model of BALB/c mice infected with the rodent filarial worm Litomosoides sigmodontis host to Wolbachia. L. sigmodontis a well established model for human filarial worms. A key advantage of this model is the fact that administration of anti-wolbachial drugs concomitant with infection by the L. sigmodontis larvae allows for a rapid assessment of activity on the day the worms are retrieved from the infected animals.
The L. sigmodontis life cycle was maintained at the Institute for Medical Microbiology, Immunology and Parasitology as described by Al-Qaoud KM et al. (1997) “Infection of BALB/c mice with the filarial nematode Litomosoides sigmodontis: role of CD4+T cells in controlling larval development”, Infect Immun 65: 2457-2461.
Female BALB/c mice aged 6-8 weeks were purchased from Charles River, Sulzfeld, Germany. […]
To control for degradation over time, an aliquot of corallopyronin A was frozen for HPLC analysis on days 1, 14 and 28. […] The worms were sorted by sex with the aid of a dissecting microscope and their lengths measured. […]
Depletion of Wolbachia was monitored by qPCR using the primers Ls-FtsZ-Fw (5′-[…]-3′, SEQ ID NO: 5) and Ls-FtsZ-Rev (5′-TTGCAATTACTGGTGCTGC-3′, SEQ ID NO: 6) and hybridization probe (5′-6-FAM-[…]-TAMRA-3′, SEQ ID NO: 7) which target ftsZ (GenBank Accession #: AJ010271), a single copy number gene of Wolbachia. […] Cycling conditions were: 95° C. for 15 minutes followed by 35 cycles of 94° C. for 4 seconds, 58° C. for 30 seconds and 72° C. for 15 seconds with fluorescence acquired on the FAM channel as described in Arumugam S et al., Int J Parasitol 2008, 38: 981-987.
To normalize the ftsZ content of worms of different lengths, the L. sigmodontis actin gene (GenBank Accession No.: GU971367) was quantified by qPCR using the primers Ac-Fw (5′-[…]-3′, SEQ ID NO: 8) and Ac-Rev (5′-[…]-3′, SEQ ID NO: 9). […]

[5] = tested on: Litomosoides sigmodontis; assay: Worm length (larval development) of L. sigmodontis recovered from treated BALB/c mice; type: in vivo, Litomosoides sigmodontis in BALB/c mice; details: worms recovered five weeks post infection
Protocol: The effect of corallopyronin A in vivo was determined in a rodent model of BALB/c mice infected with the rodent filarial worm Litomosoides sigmodontis host to Wolbachia. L. sigmodontis a well established model for human filarial worms. A key advantage of this model is the fact that administration of anti-wolbachial drugs concomitant with infection by the L. sigmodontis larvae allows for a rapid assessment of activity on the day the worms are retrieved from the infected animals. […] The L. sigmodontis life cycle was maintained at the Institute for Medical Microbiology, Immunology and Parasitology as described by Al-Qaoud KM et al. (1997) “Infection of BALB/c mice with the filarial nematode Litomosoides sigmodontis: role of CD4+T cells in controlling larval development”, Infect Immun 65: 2457-2461. Female BALB/c mice aged 6-8 weeks were purchased from Charles River, Sulzfeld, Germany. […] The worms were sorted by sex with the aid of a dissecting microscope and their lengths measured. […] Normal distribution of the data was calculated using the D′Agostino & Pearson omnibus normality test. […] Alls statistics were calculated using GraphPad Prism version 5.00 for Windows, GraphPad Software, San Diego Calif. […]

[6] = Tolerability in infected BALB/c mice; type: in vivo; details: 35 mg/kg/day dosage
Protocol: Female BALB/c mice aged 6-8 weeks were purchased from Charles River, Sulzfeld, Germany. The mice were infected with L. sigmodontis larvae as described in by Al-Qaoud K M et al. Beginning the day after the infection, the mice were untreated or given intra-peritoneal injections of: 10% dimethyl sulfoxide (DMSO) (vehicle control), 50 mg/kg/day doxycycline (Merck), or 35 mg/kg/day of corallopyronin A. Doxycycline was given for 14 days while corallopyronin A and 10% DMSO (vehicle control) were given for 28 days. All substances were diluted in phosphate buffered saline (PBS, PAA Laboratories).

Structure (SMILES): C/C=C/C/C=C(/C)[C@H](O)CC/C(C)=C/C=C(\C)C(=O)c1c(O)cc([C@H](C)CC/C=C/NC(=O)OC)oc1=O [corallopyronin A, methyl N-[(1E)-5-[4-hydroxy-3-[(2E,4E,9Z,12E)-8-hydroxy-2,5,9-trimethyltetradeca-2,4,9,12-tetraenoyl]-2-oxo-2H-pyran-6-yl]hex-1-en-1-yl]carbamate]
- degradation of corallopyronin A (HPLC) [1]: no degradation
- depletion of Wolbachia relative to doxycycline ([2]; 1 μg/ml versus 4 μg/ml doxycycline, nine days, C6/36 cell line): levels equivalent to 4 μg/ml of the tetracycline doxycycline; also recorded: levels equivalent to those of 4 μg/ml doxycycline
- depletion of Wolbachia ([2]; beginning at 0.1 μg/ml, nine days of treatment, C6/36 cell line): > 50%
- anti-wolbachial effect in vitro ([2]; in vitro tests, summary statement): potent anti-wolbachial effect
- dose dependence of Wolbachia depletion ([2]; nine day assay, 1, 0.1 and 0.01 μg/ml): dose dependent manner
- toxicity to cells / cell growth [3]: without apparent cytotoxic effects
- Wolbachia depletion from worms relative to doxycycline ([4]; 35 mg/kg/day for 28 days versus doxycycline 50 mg/kg/day for 14 days): levels below those seen for doxycycline
- depletion of the Wolbachia compared to the control ([4]; BALB/c mice infected with L. sigmodontis, 35 mg/kg/day intra-peritoneal for 28 days): > 99%
- anti-wolbachial effect in vivo ([4]; in vivo tests, summary statement): potent anti-wolbachial effect
- worm length ([5]; 35 mg/kg/day intra-peritoneal for 28 days, control worms 38 mm): 9.0 mm
- tolerability in mice [6]: well tolerated
- visually apparent toxic effects in mice [6]: no toxic effects were visually apparent

Structure (SMILES): C[C@H]1c2cccc(O)c2C(=O)C2=C(O)[C@]3(O)C(=O)C(C(N)=O)=C(O)[C@@H](N(C)C)[C@@H]3[C@@H](O)[C@@H]21 [doxycycline, reference compound]
- worm length (median) ([5]; doxycycline 50 mg/kg/day intra-peritoneal for 14 days, untreated 38 mm, vehicle 34 mm): 8.3 mm
